Source: ChEMBL document CHEMBL2203171, “The use of small molecule probes to study spatially separated stimulus-induced signaling pathways” (Bioorg Med Chem Lett, 2012)
Active and inactive are the calls of the source.

Assays:
Type in all cases: cell-based
[1] = target: T1, Inhibitor of nuclear factor kappa-B kinase subunit beta (Mus musculus) (UniProt O88351); assay: Inhibition of IKKbeta in C57BL/6 mouse BMDM cells assessed as inhibition of LPS-induced IkappaBalpha degradation at 50 uM up to 90 mins by Western blot analysis
T1 sequence (whole entry): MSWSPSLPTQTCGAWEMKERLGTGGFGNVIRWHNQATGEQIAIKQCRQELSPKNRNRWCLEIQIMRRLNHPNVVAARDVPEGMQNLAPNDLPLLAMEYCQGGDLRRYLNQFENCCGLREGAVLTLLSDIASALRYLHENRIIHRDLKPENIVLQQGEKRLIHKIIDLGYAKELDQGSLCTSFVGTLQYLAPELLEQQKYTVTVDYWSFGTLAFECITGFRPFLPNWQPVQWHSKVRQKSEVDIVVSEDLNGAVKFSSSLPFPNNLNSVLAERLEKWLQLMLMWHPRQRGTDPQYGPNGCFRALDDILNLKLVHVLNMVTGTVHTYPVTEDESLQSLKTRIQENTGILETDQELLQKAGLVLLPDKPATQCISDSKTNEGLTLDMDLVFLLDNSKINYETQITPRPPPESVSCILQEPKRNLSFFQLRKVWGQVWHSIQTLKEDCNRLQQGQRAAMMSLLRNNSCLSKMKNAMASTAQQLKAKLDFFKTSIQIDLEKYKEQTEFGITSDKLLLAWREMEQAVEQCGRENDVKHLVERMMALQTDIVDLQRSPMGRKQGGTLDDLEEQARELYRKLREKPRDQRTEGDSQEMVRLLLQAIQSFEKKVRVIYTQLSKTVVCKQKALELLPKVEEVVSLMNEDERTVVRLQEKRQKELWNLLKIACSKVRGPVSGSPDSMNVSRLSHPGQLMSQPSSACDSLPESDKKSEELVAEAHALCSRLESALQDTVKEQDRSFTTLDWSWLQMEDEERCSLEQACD

[2] = target: T1, Inhibitor of nuclear factor kappa-B kinase subunit beta (Mus musculus); assay: Inhibition of IKKbeta in C57BL/6 mouse BMDM cells assessed as inhibition of TNFalpha-induced IkappaBalpha degradation at 50 uM up to 90 mins by Western blot analysis
[3] = target: T2, MAP kinase p38 (Mus musculus) (UniProt P47811+O08911+Q9WUI1+Q9Z1B7); assay: Inhibition of MAPK p38 in C57BL/6 mouse BMDM cells assessed as inhibition of LPS-induced phosphorylation at 50 uM up to 90 mins by Western blot analysis
[4] = target: T1, Inhibitor of nuclear factor kappa-B kinase subunit beta (Mus musculus); assay: Inhibition of IKKbeta in C57BL/6 mouse BMDM cells assessed as inhibition of LPS-induced IkappaBalpha phosphorylation at 50 uM up to 90 mins by Western blot analysis
[5] = target: T2, MAP kinase p38 (Mus musculus); assay: Inhibition of MAPK p38 in C57BL/6 mouse BMDM cells assessed as inhibition of TNFalpha-induced phosphorylation at 50 uM up to 90 mins by Western blot analysis
[6] = target: T1, Inhibitor of nuclear factor kappa-B kinase subunit beta (Mus musculus); assay: Inhibition of IKKbeta in C57BL/6 mouse BMDM cells assessed as inhibition of TNFalpha-induced IkappaBalpha phosphorylation at 50 uM up to 90 mins by Western blot analysis

COc1ccc(-c2ccc(C(C(=O)NC(C)(C)C)N(C(=O)CCc3ccc(O)c(O)c3)C(C)(C)C)cc2)cc1 (configuration not stated)
inactive: inhibition (active/not active) [1] | inhibition [2] | inhibition [3] | inhibition of IkappaBalpha phosphorylation (active/not active) [4] | inhibition [5] | inhibition [6]

COc1ccc(C(=O)N(Cc2ccccn2)C(C(=O)NC(C)(C)C)c2ccc(-c3ccc(OC)cc3)cc2)cc1 (configuration not stated)
inactive: inhibition (active/not active) [1] | inhibition [2] | inhibition [3] | inhibition of IkappaBalpha phosphorylation (active/not active) [4] | inhibition [5] | inhibition [6]
